# Patent publication US20040116499A1, “Indole derivatives having an inhibitory effect on protein kinases” (priority 2001, published 2004)
# Tested on: protein kinase C
# Assay: Inhibition of the protein kinase C activity in vitro (protein kinase C assay kit, Calbiochem)
# Type: biochemical
# Conditions: both isomers as well as the racemate; test not specified at the place
# Procedure: For testing the inhibitory effect on protein kinase C a commercially available protein kinase C assay kit (e.g. Calbiochem, Cat. No. 538484) may be employed. For this purpose the phosphorylation of a pseudosubstrate is measured by means of a specific antibody. The substances to be investigated are employed as solution in dimethylsulfoxid. […] By means of this assay the effects on individual PKC isoforms and the inhibition thereof may be tested. The effective concentration may be then determined at a given ATP concentration.
# According to this Calbiochem kit it is worked with a batch of 200 μl/well in the following manner: 13 μl of buffer solution, 26 μl of 1 mM ATP (pH 7.0), 13 μl of phosphatidyl serine (500 μg/ml), 13 μl of 20 mM CaCl2, 65 μl of H2O and 55 μl of H2O, respectively, and 10 μl of inhibitor solution in DMSO are mixed, wherein 108 μl are added to an uncoated well. 12 μl of PKC solution (protein content and activity respectively of 0.1 U/12 μl) are added thereto and 100 μl thereof are added to the coated microtiter plate. After incubation for 20 min at room temperature 100 μl stop solution is added. Then washing is done five times with washing solution. […] Thereafter there is again a treatment with 100 μl of stop solution, and then the measurement is done in the Elisa reader at 492 nm. […]
smiles,measurement,value
O=C(O)C1Cc2c([nH]c3ccccc23)C2(N1)C(=O)C(c1c[nH]c3ccccc13)=C(c1c[nH]c3ccccc13)C2=O (stereo not shown) [Pityriarubine A],inhibitory effect,distinct inhibitory effect
